The source made the active and inactive calls. The calls are words filed in the database; no cut-off is given here.
Tests used:
Prosaposin [1] = biological target: T1, Prosaposin (Homo sapiens, UniProt P07602); test: Binding affinity to human saposin D (1 to 81 residues) expressed in Escherichia coli at 25 degree C by electronic absorption spectroscopy
T1 sequence (P07602 whole entry): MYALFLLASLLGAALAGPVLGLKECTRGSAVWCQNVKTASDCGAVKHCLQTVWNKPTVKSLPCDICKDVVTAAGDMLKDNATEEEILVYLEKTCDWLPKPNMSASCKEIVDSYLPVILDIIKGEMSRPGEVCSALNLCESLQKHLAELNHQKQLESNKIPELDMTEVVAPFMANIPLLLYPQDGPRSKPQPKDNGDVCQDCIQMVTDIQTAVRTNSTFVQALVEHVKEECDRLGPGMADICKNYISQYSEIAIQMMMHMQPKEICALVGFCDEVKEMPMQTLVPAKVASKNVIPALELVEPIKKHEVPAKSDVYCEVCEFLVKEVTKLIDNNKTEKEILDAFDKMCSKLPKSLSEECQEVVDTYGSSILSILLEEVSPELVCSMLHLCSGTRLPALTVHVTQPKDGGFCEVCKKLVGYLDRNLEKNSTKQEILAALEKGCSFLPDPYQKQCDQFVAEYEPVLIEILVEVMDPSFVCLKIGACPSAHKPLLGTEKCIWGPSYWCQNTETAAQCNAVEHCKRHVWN

[2] = biological target: T2, Prosaposin (Homo sapiens) (UniProt P07602); test: Binding affinity to human saposin D (1 to 81 residues) expressed in Escherichia coli assessed as inhibition of ceramide hydrolysis preincubated for 30 mins followed by ceramide addition measured after 72 hrs by HPLC analysis
T2 sequence (whole entry): T1 sequence (P07602 whole entry)

[3] = biological target: T2, Prosaposin (Homo sapiens); test: Binding affinity to human saposin D (1 to 81 residues) expressed in Escherichia coli assessed as association constant at equilibrium at 25 degree C by electronic absorption spectroscopy
[4] = biological target: T2, Prosaposin (Homo sapiens); test: Binding affinity to human saposin D (1 to 81 residues) expressed in Escherichia coli assessed as decrease in BODIPY-TR labeled ceramide solubilization in sodium phosphate buffer measured after 30 mins by fluorescence assay
[5] = biological target: T2, Prosaposin (Homo sapiens); test: Binding affinity to human saposin D (1 to 81 residues) expressed in Escherichia coli assessed as association constant at equilibrium at 25 degree C by fluorescence quenching spectroscopy
Prosaposin [6] = biological target: T1, Prosaposin; test: Binding affinity to human saposin D (1 to 81 residues) expressed in Escherichia coli at 25 degree C by fluorescence quenching spectroscopy
[7] = biological target: T3, Acid ceramidase (Homo sapiens) (UniProt Q13510); test: Inhibition of acid ceramidase (unknown origin) assessed as inhibition of ceramide hydrolysis preincubated for 30 mins followed by ceramide addition measured after 72 hrs by HPLC analysis
T3 sequence (whole entry): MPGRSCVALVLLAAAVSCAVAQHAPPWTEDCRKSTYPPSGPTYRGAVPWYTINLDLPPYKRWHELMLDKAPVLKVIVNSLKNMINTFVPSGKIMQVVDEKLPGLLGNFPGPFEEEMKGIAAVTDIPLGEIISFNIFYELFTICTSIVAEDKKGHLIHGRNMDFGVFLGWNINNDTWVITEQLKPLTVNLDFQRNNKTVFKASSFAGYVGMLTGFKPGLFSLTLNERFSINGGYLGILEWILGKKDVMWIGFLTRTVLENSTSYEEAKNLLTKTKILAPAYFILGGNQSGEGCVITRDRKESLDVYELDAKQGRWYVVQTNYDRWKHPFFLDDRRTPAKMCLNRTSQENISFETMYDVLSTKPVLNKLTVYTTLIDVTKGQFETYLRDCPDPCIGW

[8] = biological target: T2, Prosaposin (Homo sapiens); test: Binding affinity to human saposin D (1 to 81 residues) expressed in Escherichia coli complexed with CerPO4 assessed as decrease in ceramide hydrolysis using ceramide as counter-substrate preincubated the protein-ceramide complex for 30 mins measured after 24 hrs in presence of acid ceramidase by HPLC analysis
[9] = biological target: T2, Prosaposin (Homo sapiens); test: Binding affinity to human saposin D (1 to 81 residues) expressed in Escherichia coli complexed with CerOH assessed as decrease in ceramide hydrolysis using ceramide as counter-substrate measured after 24 hrs in presence of acid ceramidase by fluorescence quenching spectroscopy

Kd (Prosaposin [1]): 6.9 µM | inhibition [2]: Active | Ka [3]: 1.45 10^5/M | Activity [4]: inactive | Ka [5]: 1.45 10^5/M | Kd (Prosaposin [6]): 6.9 µM | inhibition [7]: Active | Activity [8]: Active | Activity [9]: Active
Structure (SMILES): CC1=C(/C=C/C(C)=C/C=C/C(C)=C/C(=O)Nc2ccc(O)cc2)C(C)(C)CCC1 [FENRETINIDE]

Reference: ChEMBL document CHEMBL4699434, “Fenretinide binding to the lysosomal protein saposin D alters ceramide solubilization and hydrolysis” (RSC Med Chem, 2020)
